# Assay results taken from publication PMC10845145, “Synergistic Effect of Brevetoxin BTX-3 and Ciguatoxin CTX3C in Human Voltage-Gated Nav1.6 Sodium Channels” (Chemical Research in Toxicology, 2023).
# Read-outs that look alike come from different tables or passages of the source.
# Tests used:
# [1] = target: T1, human Nav1.6 voltage-gated sodium channels (Homo sapiens, UniProt Q9UQD0); experiment: Whole-cell patch-clamp recording of fast inactivation of sodium channels in HEK293 cells transfected with Nav1.6; type: cell-based; conditions: for IC50: read-out: IC50, hyperpolarizing shift in the inactivation voltage
# T1 construct: host or cells: HEK293
# T1 sequence (Q9UQD0 whole entry): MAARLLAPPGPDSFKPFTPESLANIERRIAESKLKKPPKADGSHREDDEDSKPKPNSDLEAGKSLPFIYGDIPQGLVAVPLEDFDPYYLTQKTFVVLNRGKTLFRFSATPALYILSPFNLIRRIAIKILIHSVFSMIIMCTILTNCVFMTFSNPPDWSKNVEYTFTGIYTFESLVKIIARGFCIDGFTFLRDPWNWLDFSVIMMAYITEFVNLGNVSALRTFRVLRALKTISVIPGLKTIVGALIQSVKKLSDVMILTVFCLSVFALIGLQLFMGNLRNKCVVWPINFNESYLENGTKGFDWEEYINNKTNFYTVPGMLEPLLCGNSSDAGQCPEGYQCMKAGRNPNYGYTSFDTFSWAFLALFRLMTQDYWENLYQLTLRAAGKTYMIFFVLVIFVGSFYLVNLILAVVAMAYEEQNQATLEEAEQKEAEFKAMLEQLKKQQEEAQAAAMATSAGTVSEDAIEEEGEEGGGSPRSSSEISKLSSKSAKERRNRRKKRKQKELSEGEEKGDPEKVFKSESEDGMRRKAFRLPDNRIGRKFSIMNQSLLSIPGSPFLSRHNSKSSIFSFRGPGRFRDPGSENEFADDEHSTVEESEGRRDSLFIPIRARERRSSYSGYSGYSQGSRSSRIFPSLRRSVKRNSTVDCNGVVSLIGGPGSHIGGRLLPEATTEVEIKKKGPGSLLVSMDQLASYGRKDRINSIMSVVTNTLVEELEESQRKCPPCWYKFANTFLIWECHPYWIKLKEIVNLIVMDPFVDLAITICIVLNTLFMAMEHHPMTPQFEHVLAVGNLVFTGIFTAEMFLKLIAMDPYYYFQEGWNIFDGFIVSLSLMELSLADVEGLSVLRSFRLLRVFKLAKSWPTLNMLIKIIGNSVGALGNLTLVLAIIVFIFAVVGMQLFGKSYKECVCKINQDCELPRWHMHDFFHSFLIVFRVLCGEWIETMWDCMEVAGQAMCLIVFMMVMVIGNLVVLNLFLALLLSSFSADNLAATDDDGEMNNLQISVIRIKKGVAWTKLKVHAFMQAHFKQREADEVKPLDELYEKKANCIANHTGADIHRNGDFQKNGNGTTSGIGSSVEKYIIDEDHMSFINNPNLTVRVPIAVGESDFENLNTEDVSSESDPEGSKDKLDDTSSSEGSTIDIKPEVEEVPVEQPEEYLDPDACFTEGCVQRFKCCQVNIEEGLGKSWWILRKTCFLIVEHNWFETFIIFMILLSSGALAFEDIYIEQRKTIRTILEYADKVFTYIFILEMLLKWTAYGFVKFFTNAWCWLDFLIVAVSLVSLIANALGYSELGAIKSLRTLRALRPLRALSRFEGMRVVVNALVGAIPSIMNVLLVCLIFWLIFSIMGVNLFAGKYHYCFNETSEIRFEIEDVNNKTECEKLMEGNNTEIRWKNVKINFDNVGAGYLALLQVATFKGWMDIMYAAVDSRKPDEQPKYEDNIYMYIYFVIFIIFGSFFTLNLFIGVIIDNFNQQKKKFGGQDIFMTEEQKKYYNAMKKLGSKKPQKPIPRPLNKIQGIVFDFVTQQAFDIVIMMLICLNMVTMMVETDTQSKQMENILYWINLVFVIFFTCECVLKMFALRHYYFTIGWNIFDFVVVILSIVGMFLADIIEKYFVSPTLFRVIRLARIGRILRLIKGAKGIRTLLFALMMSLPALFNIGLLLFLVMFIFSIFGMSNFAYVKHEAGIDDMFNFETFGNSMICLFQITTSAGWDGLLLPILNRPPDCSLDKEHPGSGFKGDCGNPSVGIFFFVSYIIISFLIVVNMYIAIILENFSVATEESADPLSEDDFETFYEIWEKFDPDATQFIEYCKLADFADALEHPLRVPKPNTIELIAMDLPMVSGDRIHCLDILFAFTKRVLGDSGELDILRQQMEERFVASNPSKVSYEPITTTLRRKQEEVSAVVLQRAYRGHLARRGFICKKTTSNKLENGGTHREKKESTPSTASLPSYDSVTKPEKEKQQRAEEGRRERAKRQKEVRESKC
# Description: (§1) The human embryonic kidney cell line (HEK293) transfected with the α subunit of the Nav1.6 sodium channel isoform was kindly provided, under a material transfer agreement, by GlaxoSmithKline R&D (Stevenage, U.K). The cells were cultured in Dulbecco’s modified Eagle’s medium (DMEM)/F12 medium enriched with glutamax, nonessential amino acid solution (MEM, Gibco, 1% w/v), 10% fetal bovine serum, and 0.4 mg/mL Geneticin (G418, Gibco) and maintained at 37 °C in a humidified 95% […]/5% CO2 atmosphere until they reached 80% of confluence, replacing the medium every 2 days. The cells were subcultured in 12-well plates in glass coverslips at a density of 60,000 cells/mL. Twenty-four or 48 h before electrophysiological recordings, the cells were placed at 30 °C to maximize sodium channel expression.[32]
# (§2) For electrophysiological recordings, glass coverslips with cells were placed in a recording chamber with 0.5 mL Lockés buffer as the extracellular solution. Recording electrodes were fabricated with borosilicate glass microcapillaries (1.5 outer diameter) and had resistances ranging from 4 to 10 MΩ. Pipettes were filled with an intracellular solution containing 120 mM CsF, 10 mM EGTA, 10 mM HEPES, and 15 mM NaCl and pH adjusted to 7.25 with CsOH. Voltage-gated sodium currents were recorded at room temperature 5 min after reaching the whole-cell configuration with a Multiclamp 700B amplifier and digitalized with the Digidata 1440A (both from Axon Instruments, California, U.S.A.) maintaining the cells at a holding potential (Vhold) of −55 mV. Signals were sampled at 50 kHz after low-pass Bessel filtering at 10 kHz. Compensation circuitry was used to reduce the series resistance by at least 70%. To record the activation of VGSCs, voltage steps from −80 to +80 mV in 10 mV step increments were applied prior to a test pulse of −90 mV. Fast inactivation was measured at 0 mV after prior test pulses of 300 ms duration ranging from −100 to 0 mV in 10 mV voltage step increments after maintaining the holding potential at −90 mV during 10 ms.
# (§3) All data are expressed as means ± SEMs of n determinations. Data analysis was performed using GraphPad Prism 8. Statistical comparisons were performed using one-way analysis of variance (ANOVA), followed by post hoc Dunnett̀s tests. p values ≤ 0.05 were considered statistically significant, and IC50 values were determined by fitting the data with a log (inhibitor) vs normalized response model.
# (§4) The combination index (CI) was calculated with the Chou–Talalay equation[33] following the formula [drawing 1] 1 where (DX)1 is the IC50 value of CTX3C alone, (DX)2 the IC50 value of BTX-3 alone, and D1 and D2 are the IC50 values of CTX3C and BTX-3, respectively, in combination. According to the Chou–Talalay method, additivity is established if CI = 1, synergism if CI < 1, and antagonism if CI > 1.
# [2] = target: T1, human Nav1.6 voltage-gated sodium channels; experiment: Whole-cell patch-clamp recording of sodium current activation (peak INa, activation voltage) in HEK293 cells transfected with Nav1.6; type: cell-based; conditions: for +10 nM BTX-3 normalized INa (max) / normalized INa (max): control = –1; for normalized INa (max): CTX3C alone; for shift in the activation voltage for CTX3C: vs control
# Description: as §1, §2, §3, §4
# [3] = target: rat brain sodium channels; conditions: cited from earlier work; for Ki: binding affinity to rat brain sodium channels, read-out: inhibitory constant (ki)
smiles,measurement,setting,value
"C=C(CO)CC1CC(O)C2(C)OC3CC4OC5CC6(C)OC7(C)CCC8OC9CC%10(C)OC%11C(C)=CC(=O)OC%11CC%10OC9CC(C)C8OC7CC6OC5(C)C/C=C\C4OC3CC2O1 (stereo not shown) [BTX-3, brevetoxin 3]",IC50,[1],4700 nM
same,agonist profile on the channels (negative displacement in the activation voltage),[2],partial agonist
same,decrease in the maximum INa at −20 mV,[2],21.9 ± 10.9%
same,decrease of peak sodium current amplitude,[2],31.2 ± 15%
same,increased potency on the activation voltage after combination,[2],10 times
same,maximum INa at −20 mV,[2],−2887.70 ± 402.0 pA
same,IC50,"[2]; read-out: IC50, negative shift in the activation voltage",46.2 nM
same,IC50,"[2]; read-out: IC50, percent inhibition of the peak inward sodium currents (INa)",202 nM
"CC1CC2OC3C(CC2OC2CC4OC5CC=CCC6OC7C=CC8OC9C(CC8OC7CC=CC6OC5CC(O)C4(C)OC2C1)OC1CC=CCOC1C9O)OC1C(C)C(C)C2(CCCO2)OC1C(O)C3C (stereo not shown) [CTX3C, ciguatoxin 3C]",inactivation voltage for CTX3C (V1/2),[1]; [CTX3C] 0.001 nM,–50.1 ± 4.1 mV
same,inactivation voltage for CTX3C (V1/2),[1]; [CTX3C] 0.01 nM,–47.4 ± 1.4 mV
same,inactivation voltage for CTX3C (V1/2),[1]; [CTX3C] 0.1 nM,–53.4 ± 6.8 mV
same,inactivation voltage for CTX3C (V1/2),[1]; [CTX3C] 1 nM,–54.9 ± 5 mV
same,IC50,[1]; single toxin alone,306 nM
same,Ki,[3],0.47 nM
same,higher affinity than that of BTX-3s,"[3]; binding to VGSC, at concentrations of 1 nM of the compounds",20 fold
same,agonist profile on the channels (negative displacement in the activation voltage),[2],full agonist
same,effect on maximum INa peak,[2]; 0.17 nM CTX3C,a decrease of the maximum INa peak was elicited
same,effect on the activation voltage,[2]; 0.17 nM CTX3C alone,no changes in the activation voltage were observed
same,+10 nM BTX-3 normalized INa (max),[2]; CTX3C 0.0001 nM in the presence of 10 nM BTX-3,–0.89 ± 0.08
same,+10 nM BTX-3 normalized INa (max),[2]; CTX3C 0.001 nM in the presence of 10 nM BTX-3,–0.89 ± 0.13
same,+10 nM BTX-3 normalized INa (max),[2]; CTX3C 0.01 nM in the presence of 10 nM BTX-3,–0.88 ± 0.13
same,+10 nM BTX-3 normalized INa (max),[2]; CTX3C 0.1 nM in the presence of 10 nM BTX-3,–0.90 ± 0.11
same,+10 nM BTX-3 normalized INa (max),[2]; CTX3C 1 nM in the presence of 10 nM BTX-3,–0.68 ± 0.09
same,+10 nM BTX-3 normalized INa (max),[2]; CTX3C 5 nM in the presence of 10 nM BTX-3,–0.46 ± 0.09
same,normalized INa (max),[2]; 0.0001 nM,–0.79 ± 0.05
same,normalized INa (max),[2]; 0.001 nM,–0.62 ± 0.08
same,normalized INa (max),[2]; 0.01 nM,–0.66 ± 0.09
same,normalized INa (max),[2]; 0.1 nM,–0.63 ± 0.09
same,normalized INa (max),[2]; 1 nM,–0.27 ± 0.07
same,normalized INa (max),[2]; 5 nM,–0.32 ± 0.04
same,activation voltage for CTX3C,[2]; [CTX3C] 0.0001 nM,–30.0 ± 0 mV
same,shift in the activation voltage for CTX3C,[2]; [CTX3C] 0.0001 nM,0.71 ± 5.4 mV
same,activation voltage for CTX3C,[2]; [CTX3C] 0.001 nM,–30.0 ± 0 mV
same,activation voltage for CTX3C,[2]; [CTX3C] 0.01 nM,–33.3 ± 3.3 mV
same,shift in the activation voltage for CTX3C,[2]; [CTX3C] 0.01 nM,–2.62 ± 5.6 mV
same,activation voltage for CTX3C,[2]; [CTX3C] 0.1 nM,–39.0 ± 1.8 mV
same,shift in the activation voltage for CTX3C,[2]; [CTX3C] 0.1 nM,–8.29 ± 3.3 mV
same,activation voltage for CTX3C,[2]; [CTX3C] 1 nM,–46.7 ± 2.9 mV
same,activation voltage for CTX3C,[2]; [CTX3C] 5 nM,–51.67 ± 4.8 mV
same,shift in the activation voltage for CTX3C,[2]; [CTX3C] 5 nM,–20.95 ± 4.8 mV
same,peak sodium current at −10 mV,"[2]; after bath application of 1 nM CTX3C, control −1156 ± 189 pA",−692 ± 372 pA
same,increased potency on the activation voltage after combination,[2]; combination of CTX3C and BTX-3 vs each alone,10 times
same,IC50,"[2]; single toxin alone, read-out: IC50, negative shift in the activation voltage",2.58 nM
same,IC50,"[2]; single toxin alone, read-out: IC50, percent inhibition of the peak inward sodium currents (INa)",0.173 nM
C[C@@H]1C[C@@H]2O[C@@H]3[C@@H](C)[C@H](O)[C@@H]4O[C@]5(C[C@H](O)CO5)[C@@H](C)[C@H](C)[C@H]4O[C@H]3C[C@H]2O[C@H]2C[C@H]3O[C@H]4C/C=C\C[C@H]5O[C@H]6C=C[C@H]7O[C@H]8[C@H](O)[C@H]9O[C@@H](/C=C/[C@H](O)CO)C=CC[C@@H]9O[C@@H]8C[C@@H]7O[C@@H]6C=C[C@@H]5O[C@@H]4C[C@@H](O)[C@]3(C)O[C@@H]2C1 [ciguatoxin-1B],Ki,[3],0.041 nM
same,ki difference relative to BTX-1,[3]; ciguatoxin-1B vs BTX-1,more than 50 fold
